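Assay format: 96-well plates, 48-hour exposure. TGI denotes the concentration required for complete inhibition of growth.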
Experiments:
Experiment in all cases: NCI tumour cell line growth inhibition, 48 h
[1] = system: 786-0 renal
[2] = system: COLO 205 colon
[3] = system: HCC-2998 colon
[4] = system: HCT-15 colon
[5] = system: M14 melanoma
[6] = system: MDA-MB-231 breast
[7] = system: MDA-N
[8] = system: NCI-H23 lung
[9] = system: RPMI-8226 leukemia
[10] = system: SK-MEL-2 melanoma
[11] = system: UACC-257 melanoma

[N-]=[N+]=NC(c1ccccc1)(c1ccccc1)c1ccccc1
TGI [1]: 31.5 µM | TGI [2]: 27.8 µM | TGI [3]: 30.5 µM | TGI [4]: 40.5 µM | TGI [5]: 35.5 µM | TGI [6]: 31.2 µM | TGI [7]: 31.4 µM | TGI [8]: 42.4 µM | TGI [9]: 62.6 µM | TGI [10]: 29.3 µM | TGI [11]: 31.4 µM

CC(C)=CCC[C@@H](C)c1c(O)c(O)c(C)c2nccnc12
TGI [1]: > 100 µM | TGI [2]: > 80.7 µM | TGI [3]: > 96.6 µM | TGI [4]: > 100 µM | TGI [5]: > 100 µM | TGI [6]: > 100 µM | TGI [7]: > 100 µM | TGI [8]: > 79.1 µM | TGI [9]: > 62.7 µM | TGI [10]: 58 µM | TGI [11]: > 100 µM

Nc1nc2c(c(-c3cccc(Cl)c3)n1)COC/C2=C\c1cccc(Cl)c1
TGI [1]: > 100 µM | TGI [2]: > 100 µM | TGI [3]: > 100 µM | TGI [4]: > 100 µM | TGI [5]: > 100 µM | TGI [6]: > 100 µM | TGI [7]: > 100 µM | TGI [8]: > 100 µM | TGI [9]: > 100 µM | TGI [10]: > 100 µM | TGI [11]: > 100 µM

C#CCn1c(=O)c2ccccc2n(CC#C)c1=O
TGI [1]: > 10 µM | TGI [2]: > 10 µM | TGI [3]: > 10 µM | TGI [4]: > 10 µM | TGI [5]: > 10 µM | TGI [6]: > 10 µM | TGI [7]: > 10 µM | TGI [8]: > 10 µM | TGI [9]: > 10 µM | TGI [10]: > 10 µM | TGI [11]: > 10 µM

Oc1ccccc1CNCc1nc2ccccc2[nH]1
TGI [1]: > 100 µM | TGI [2]: 82.7 µM | TGI [3]: > 100 µM | TGI [4]: 12.3 µM | TGI [5]: > 100 µM | TGI [6]: > 100 µM | TGI [7]: > 100 µM | TGI [8]: > 100 µM | TGI [9]: 73.1 µM | TGI [10]: > 100 µM | TGI [11]: > 100 µM

Nn1c(-c2ccccc2)n[nH]c1=O
TGI [1]: > 100 µM | TGI [2]: > 100 µM | TGI [3]: > 100 µM | TGI [4]: > 100 µM | TGI [5]: > 100 µM | TGI [6]: > 100 µM | TGI [7]: > 100 µM | TGI [8]: > 100 µM | TGI [9]: > 100 µM | TGI [10]: > 100 µM | TGI [11]: > 100 µM

Nn1c(Nc2ccc(S(=O)(=O)Nc3ncccn3)cc2)nnc(/C=C/c2c(O)ccc3ccccc23)c1=O
TGI [1]: 73.6 µM | TGI [3]: 57.7 µM | TGI [4]: > 100 µM | TGI [5]: 78.2 µM | TGI [6]: 71 µM | TGI [7]: > 100 µM | TGI [8]: 45.6 µM | TGI [9]: > 100 µM | TGI [10]: 51.1 µM | TGI [11]: 55.2 µM

COc1ncc(/C=C2\OC(=O)c3ccccc32)c(OC)n1
TGI [1]: > 100 µM | TGI [2]: > 100 µM | TGI [3]: > 100 µM | TGI [4]: > 100 µM | TGI [5]: > 100 µM | TGI [6]: > 100 µM | TGI [7]: > 100 µM | TGI [8]: > 100 µM | TGI [9]: > 100 µM | TGI [11]: > 100 µM

O=[N+]([O-])c1ccc2[nH]nc(OCc3ccccc3Cl)c2c1
TGI [1]: 59.4 µM | TGI [2]: > 100 µM | TGI [3]: > 100 µM | TGI [4]: > 100 µM | TGI [5]: > 100 µM | TGI [6]: > 100 µM | TGI [7]: > 100 µM | TGI [8]: > 100 µM | TGI [9]: > 100 µM | TGI [10]: 90.6 µM | TGI [11]: > 100 µM

Cc1ccc(-c2csc(=Nc3ccccc3)n2NC(=O)c2ccncc2)cc1
TGI [1]: > 100 µM | TGI [2]: 82.5 µM | TGI [3]: > 100 µM | TGI [4]: > 100 µM | TGI [5]: > 100 µM | TGI [6]: > 100 µM | TGI [7]: > 100 µM | TGI [8]: > 76.1 µM | TGI [9]: 75.8 µM | TGI [10]: 96.1 µM | TGI [11]: > 100 µM

O=C(C1OC1c1ccc(Br)cc1O)C12CC3CC(CC(C3)C1)C2 (stereo not given)
TGI [1]: 32.4 µM | TGI [3]: 47.6 µM | TGI [4]: 47 µM | TGI [5]: 38.6 µM | TGI [6]: 43.6 µM | TGI [7]: 32.8 µM | TGI [8]: 81.3 µM | TGI [9]: 47.5 µM | TGI [11]: > 100 µM

CC(C)c1cc2c(cc1S(=O)(=O)O)[C@@]1(C)CCC[C@@](C)(C(=O)O)C1CC2 (stereo not given in full)
TGI [1]: > 100 µM | TGI [2]: > 100 µM | TGI [3]: > 100 µM | TGI [4]: > 100 µM | TGI [5]: > 100 µM | TGI [6]: > 100 µM | TGI [7]: > 100 µM | TGI [8]: > 100 µM | TGI [9]: > 100 µM | TGI [10]: > 100 µM | TGI [11]: > 100 µM

COc1nncc2[nH]c(-c3ccccc3)cc12
TGI [1]: > 100 µM | TGI [2]: > 100 µM | TGI [3]: > 100 µM | TGI [4]: > 100 µM | TGI [5]: > 100 µM | TGI [6]: > 100 µM | TGI [7]: > 100 µM | TGI [8]: > 100 µM | TGI [9]: > 100 µM | TGI [10]: > 100 µM | TGI [11]: > 100 µM

C/C(=C\CBr)CCC(Br)C(C)(C)Br (stereo not given)
TGI [1]: > 100 µM | TGI [2]: > 100 µM | TGI [3]: > 100 µM | TGI [4]: > 100 µM | TGI [5]: > 100 µM | TGI [6]: > 100 µM | TGI [7]: > 100 µM | TGI [8]: > 100 µM | TGI [9]: > 100 µM | TGI [10]: > 100 µM | TGI [11]: > 100 µM

O=S(=O)(c1ccccc1)c1cccc2c1NCCC2
TGI [1]: > 100 µM | TGI [2]: > 10 µM | TGI [3]: > 100 µM | TGI [4]: > 100 µM | TGI [5]: > 100 µM | TGI [6]: > 100 µM | TGI [7]: > 100 µM | TGI [9]: > 100 µM | TGI [10]: > 10 µM | TGI [11]: 76.9 µM

CCCCCC1=CC(=O)C1(Cl)Cl
TGI [1]: 35.8 µM | TGI [2]: 26.7 µM | TGI [3]: 27.7 µM | TGI [4]: 32.4 µM | TGI [5]: 45.6 µM | TGI [6]: 31 µM | TGI [7]: 28.3 µM | TGI [8]: 49.7 µM | TGI [9]: 7.87 µM | TGI [10]: 47.7 µM | TGI [11]: 33.3 µM

O=C(c1ccccn1)C1(N2CCCCC2)CCCCC1
TGI [1]: > 100 µM | TGI [2]: > 100 µM | TGI [3]: > 100 µM | TGI [4]: > 100 µM | TGI [5]: > 100 µM | TGI [6]: > 100 µM | TGI [7]: > 100 µM | TGI [8]: > 100 µM | TGI [9]: > 100 µM | TGI [10]: > 100 µM | TGI [11]: > 100 µM

COc1ccc(N=NC(=Nc2ccccc2)c2ccc(N(CCC#N)CCC#N)cc2)cc1
TGI [1]: > 100 µM | TGI [2]: 28.6 µM | TGI [3]: > 100 µM | TGI [4]: > 100 µM | TGI [5]: > 100 µM | TGI [6]: 59.7 µM | TGI [7]: > 100 µM | TGI [8]: > 100 µM | TGI [9]: > 100 µM | TGI [10]: > 100 µM | TGI [11]: 56.8 µM

Nc1nccc(-c2c[nH]c3cc(Br)ccc23)n1
TGI [1]: 46.9 µM | TGI [2]: > 100 µM | TGI [3]: 64.9 µM | TGI [4]: > 100 µM | TGI [5]: 43.9 µM | TGI [6]: > 100 µM | TGI [7]: 45.8 µM | TGI [8]: 88.4 µM | TGI [9]: 49.5 µM | TGI [10]: 47.2 µM | TGI [11]: 86.7 µM

Cc1ccc(NC(=O)c2ccc(OP(=O)(O)Nc3ccc(C)cc3)cc2)cc1
TGI [1]: > 100 µM | TGI [2]: > 100 µM | TGI [3]: > 100 µM | TGI [4]: > 100 µM | TGI [5]: > 100 µM | TGI [6]: > 100 µM | TGI [7]: > 100 µM | TGI [8]: > 100 µM | TGI [9]: > 100 µM | TGI [10]: > 100 µM | TGI [11]: > 100 µM

From PubChem BioAssay (NCI)
